# Earlier results as cited in patent publication US10993934B2, “Topical compositions of dutasteride” (SHILPA MEDICARE LIMITED, priority 2017, dated 2021).
# Legend:
# [1] = orally administered
structure (smiles),measurement,setting,value
"C[C@]12C=CC(=O)N[C@@H]1CC[C@@H]1[C@@H]2CC[C@]2(C)[C@@H](C(=O)Nc3cc(C(F)(F)F)ccc3C(F)(F)F)CC[C@@H]12 [Dutasteride, (5α,17β)-N-{2,5-bis(trifluoromethyl)phenyl}-3-oxo-4-azaandrost-1-ene-17-carboxamide]",Absolute bioavailability,[1],about 60%
same,Absolute bioavailability (range),[1]; range in brackets,40%-94%
same,Solubility in ethanol,ethanol,soluble
same,Solubility in methanol,methanol,soluble
same,Solubility in polyethylene glycol 400,polyethylene glycol 400,soluble
same,Solubility in water,water,insoluble
